Experimental data published in ChEMBL document CHEMBL5052837, “Ghrelin o-acyltransferase inhibitors” (2019).
Activity calls are given as the source filed them. No cut-off for these calls is given here.

Experiments:
[1] = In vivo inhibition of GOAT in high fat, high carb (HFHC) diet-induced obesity model of C57BL/6 mouse assessed as reduction in acyl ghrelin level at 3 mg/kg; format: functional; parameters: scale not given: the % may be the effect or the level left
Mus musculus [2] = experiment: In vivo inhibition of GOAT in high fat, high carb (HFHC) diet-induced obesity model of C57BL/6 mouse assessed as increase in des-acyl ghrelin level at 3 mg/kg; format: functional, organism-based
Rattus norvegicus [3] = experiment: In vivo inhibition of GOAT in fasting rat assessed as increase in des-acyl ghrelin level at 10 mg/kg; format: functional, organism-based
Rattus norvegicus [4] = experiment: In vivo inhibition of GOAT in fasting rat assessed as reduction in acyl ghrelin level at 10 mg/kg; format: functional, organism-based
Mus musculus [5] = experiment: In vivo inhibition of GOAT in high fat, high carb (HFHC) diet-induced obesity model of C57BL/6 mouse assessed as increase in des-acyl ghrelin level at 10 mg/kg; format: functional, organism-based
Mus musculus [6] = experiment: In vivo inhibition of GOAT in fasting mouse assessed as reduction in acyl ghrelin level at 1 to 10 mg/kg, po administered twice a day for 2 days; format: functional, organism-based; settings: dose 1-10 mg/kg, time 2.0 day

Row | SMILES | Activity [1] [%] | Activity (Mus musculus [2]) | Activity (Rattus norvegicus [3]) | Activity (Rattus norvegicus [4]) | Activity (Mus musculus [5]) | Activity (Mus musculus [6])
1 | Cc1c(C(=O)NN2CCCCC2)nn(-c2ccc(Cl)cc2Cl)c1-c1ccc(Cl)cc1 [RIMONABANT] | 61 | Active | – | – | – | –
2 | O=C(O)Cc1csc2cc(O[C@H]3CCc4ncccc43)cc(Cl)c12 | – | – | Active | Active | Active | Active
